According to US20010018065A1, “Compounds and methods for the treatment of bacterial dysentery using antibiotics and toxin binding oligosaccharide compositions” (priority 1998, published 2001):
≈ marks a conversion by molar mass, not a printed value.

Tested on: E. coli ATCC 25922
Assay: Minimum inhibitory concentration (NCCLS M7-A2) for reference strain
Type: cell-based
Conditions: reference strain ATCC #25922; for MIC: Escherichia coli, ATCC25922

| SMILES | MIC | Minimum Inhibitory Concentration |
| --- | --- | --- |
| C=CC1=C(C(=O)O)N2C(=O)[C@@H](NC(=O)/C(=N\OCC(=O)O)c3csc(N)n3)[C@H]2SC1 [Cefixime] | 0.96 µg/mL (≈ 2.12 µM) |  |
| O=C(O)c1cn(C2CC2)c2cc(N3CCNCC3)c(F)cc2c1=O [Ciprofloxacin] | 0.0384 µg/mL (≈ 0.116 µM) |  |
| CO[C@@]12[C@H](COC(N)=O)C3=C(C(=O)C(C)=C(N)C3=O)N1C[C@@H]1N[C@@H]12 [Mitomycin-C] |  | 9.6 µg/mL |
| CN(C)[C@@H]1C(O)=C(C(N)=O)C(=O)[C@@]2(O)C(O)=C3C(=O)c4c(O)cccc4[C@@](C)(O)[C@H]3C[C@@H]12 [Tetracycline] | 1.92 µg/mL (≈ 4.32 µM) |  |
